Assay results: US7541156B1, “Method of identifying antinociceptive compounds using protease activated receptor-2” (priority 2000, dated 2009)
No end group written: not given here.

Key:
[1] = test system: cultured adult rat thoracic DRG neurons; assay: CGRP release assay in cultured DRG neurons; format: cell-based; conditions: 10 min pretreatment with peptide 10 μM, mean of wells, three experiments
Description: Cell Culture. Primary cultures of rat DRG neurons were prepared from male adult Sprague Dawley rats (200-250 gm). Following enzymatic treatment and dissociation, neurons were spun through a percoll cushion (Hofbauer et al. 1998) and were plated at a density of 10,000-20,000 neurons/well of a 48 well tissue culture plate. Cultures were maintained in DME+10% FCS supplemented with penicillin/streptomycin, 150 μM uridine and 50 μM 5-fluoro-2-deoxyuridine (Nguyen et al. 1999). NGF (murine, recombinant, 2.5S; Promega, Madison, Wis.) was used at 50 ng/ml. Neurons were treated for five days before release experiments or Calcium-imaging studies were performed.
CGRP release assay. Immunoreactive calcitonin gene-related peptide (IR-CGRP) release from DRG cultures was performed as described by Hingtgen et al. (1995). Briefly, neuron cultures were washed with Release Buffer (RB) (25 mM Hepes, pH 7.4, 135 mM NaCl, 3.5 mM KCl, 2.5 mM CaCl2, 1 mM MgCl2, 3.3 mM Glucose, 0.1% BSA, 1 μM phosphoamidon), and were incubated for 10 min at 37° C. in RB plus 0.1% ethanol (Capsaicin vehicle) to measure basal CGRP release. Fresh RB containing the appropriate concentration of activating peptide (AcPep) or control peptide (CoPep) was added for an additional 10 minutes. Peptide treatment was followed by a 10 minute incubation with an appropriate dose of Capsaicin or KCl. IR-CGRP released by neurons was measured by ELISA. Activating peptide and control peptide were prepared by standard solid phase synthesis procedures by the UTMB Core Protein Facility.
CGRP Quantification. CGRP was quantified in a standard sandwich ELISA. In brief, 96-well “U” bottom microtiter ELISA plates (Dynex, Chantilly, Va.) were coated with affinity purified polyclonal rabbit antibody to rat CGRP (Peninsula Labs, Belmont, Calif.) at 3 μg/ml in 0.125M borate buffered saline (pH 8.1) (100 μl/well). The plates were incubated overnight at 37° C. The next day, the plates were washed three times with saline containing 0.05% Tween-20. Purified rat CGRP (Peninsula Labs) was used at a previously standardized concentration range of 25-1 ng/ml in a four-fold dilution to generate a standard curve. An equal volume of the sample was added in duplicate to a seventy-five μl/well of Tween-PBS (pH 7.1) and the plates were incubated for two hours on a shaker at room temperature. The plates were washed 3 times with Tween-PBS and 100 μl/well (0.2 mg/ml; 1:500 dilution) of in-house biotinylated, rabbit anti rat CGRP IgG (Peninsula Labs) was applied and incubated for two hours at room temperature. After three washes 150 μl of 1:1000 diluted streptavidine-horseradish peroxidase conjugate (Zymed, San Fransisco, Calif.) was added to each well and the plates were incubated for 90 min at room temperature. One-hundred-fifty μl/well of the substrate ortho-phenylene diamine dihydrochloride (Sigma Chemicals, St. Louis, Mo.) 0.4 mg/ml in citrate buffer (pH 4.9) was added after plates were washed three more times. Forty μl/100 ml of 30% H2O2 was added fresh to the citrate buffer just before adding to the wells to activate the coloring reaction. The reaction was stopped with 5N H2SO4 (50 μl/well) and the plates were read at 490 nm in an automated ELISA reader (Bio-Tek Instruments, Inc., Winooski, VE). The OD values were plotted against the CGRP standard curve and CGRP immunoreactivity was quantified using the appropriate formula and expressed as nanogram/ml.
Statistics. Release data are presented as the mean± standard error of the mean (SEM) of wells from three separate experiments. To compare the effects of activating peptide and control peptide on subsequent evoked release, an overall test based on the analysis of variance was performed (ANOVA). […] Intraductal injection studies were analyzed using a repeated measure ANOVA and individual means were compared using a Newman-Keuls multiple comparison test. Significance levels were set at p<0.05. […]

[2] = test system: pancreatic afferent neurons / spinal segments T8-T10; assay: c-FOS expression in spinal cord segments after pancreatic intraductal injection; format: in vivo, rat; conditions: peptide 100 μM intraductal, followed 30 min later by Capsaicin 0.5 mg/kg; 2.5 hours
Description: Intraductal (pancreatic duct) injection. To administer the necessary peptides directly into the rat pancreatic duct we followed a modified protocol, previously described by Kim et al. (1996). In brief, rats were anesthetized i.p. with nembutal sodium (Abbot Laboratories, Chicago, Ill.) (50 mg/kg body weight). The peritoneum was incised to expose the duodenum and the duodenal loop was pulled out. The pancreatic duct entering the duodenum was identified under dissecting microscope and a small niche was made into the duct with a 30-gauge needle. A polyethylene 10 tubing (0.61 mm outer diameter) (Becton Dickinson and Company, Franklin Lakes, N.J.) was guided into the duct and tied to secure its position. The common bile duct was ligated close to the liver to prevent entry of the injected substance into the liver. Similarly the duct was ligated near its entry into the duodenum. The position of the tube into the pancreatic duct was confirmed by freely flowing bile through the tubing. […] Thirty minutes later Capsaicin 0.5 mg/kg (total volume 500 μl) or vehicle (1×PBS, 10% ETOH, 1% Tween) was injected to half of the AcPep or CoPep injected rats. Three rats were included in each treatment group (n=3 for number of experiments). The tubing was carefully removed and bile flow from the liver into the duodenum was re-established. The abdominal cavity was closed with sutures. Rats were sacrificed 2.5 hrs after the initial injection.
C-fos staining. Rats were anesthetized with sodium pentobarbital (50 mg/kg i.p.) and perfused with 200 mls PBS followed by 500 mls ice-cold freshly prepared 4% paraformaldehyde in PBS. Spinal cord (level T5-T13) was removed, post-fixed in 4% paraformaldehyde for 18 hrs at 4° C. and placed in PBS (pH 7.4) containing 30% sucrose for 24 hrs at 4° C. Frozen sections (40 μm) were cut on a cryostat and stored as floating sections in PBS at 4° C. Every third section was stained for c-fos with a rabbit polyclonal serum, 1:1000 dilution, (c-fos, Ab-5, Oncogene Research Products) utilizing manufacturer's protocol. Antibody staining was visualized using a biotinylated secondary antisera and Vectastain ABC peroxidase kit with DAB as substrate. Sections were mounted on Superfrost Plus slides (VWR Scientific, West Chester, Pa.) and dehydrated. The number of c-FOS immunoreactive (IR) neurons were counted in 10 randomly chosen sections per segment under brightfield illumination and then averaged.
Statistics. Release data are presented as the mean± standard error of the mean (SEM) of wells from three separate experiments. […] Intraductal injection studies were analyzed using a repeated measure ANOVA and individual means were compared using a Newman-Keuls multiple comparison test. […]

[3] = target: T1, mouse Par2 (Mus musculus, UniProt P55086); conditions: expressed in frog oocytes; cited from earlier work
T1 construct: host or cells: frog oocytes
T1 sequence (P55086 26-399): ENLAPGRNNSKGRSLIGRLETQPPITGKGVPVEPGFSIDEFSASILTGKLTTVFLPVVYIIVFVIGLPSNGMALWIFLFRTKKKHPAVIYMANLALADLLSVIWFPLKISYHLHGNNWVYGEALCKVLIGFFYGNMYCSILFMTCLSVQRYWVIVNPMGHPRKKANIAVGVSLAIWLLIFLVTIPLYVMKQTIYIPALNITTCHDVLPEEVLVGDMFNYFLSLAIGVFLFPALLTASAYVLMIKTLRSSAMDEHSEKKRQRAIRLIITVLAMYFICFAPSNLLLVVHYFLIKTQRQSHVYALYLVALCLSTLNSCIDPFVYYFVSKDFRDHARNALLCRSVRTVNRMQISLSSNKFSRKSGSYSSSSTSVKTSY

[4] = target: T2, protease activated receptor-2 (PAR-2) of adult rat thoracic dorsal root ganglion neurons (rat, UniProt Q63645 37-397); assay: cell-based or functional assay
T2 sequence (looked up): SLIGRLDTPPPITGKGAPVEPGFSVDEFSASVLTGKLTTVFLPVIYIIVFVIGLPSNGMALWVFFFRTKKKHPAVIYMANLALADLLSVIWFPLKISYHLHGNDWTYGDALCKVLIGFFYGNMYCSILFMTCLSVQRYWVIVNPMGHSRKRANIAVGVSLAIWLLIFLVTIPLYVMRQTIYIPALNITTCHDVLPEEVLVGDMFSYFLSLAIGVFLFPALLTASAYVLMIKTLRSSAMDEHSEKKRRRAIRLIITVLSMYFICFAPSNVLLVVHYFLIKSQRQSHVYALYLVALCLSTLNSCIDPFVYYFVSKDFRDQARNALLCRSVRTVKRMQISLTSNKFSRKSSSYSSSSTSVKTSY

RLGILS-amide (RLGILS-NH2) [CoPep]
CGRP release induced by Capsaicin (50 nM) ([1]; then Capsaicin 50 nM for 10 min in presence of peptide): 4.77 ng/mL | CGRP release induced by KCl (70 mM) ([1]; then KCl 70 mM for 10 min in presence of peptide): 1.8 ng/mL | Capsaicin-evoked c-FOS expression in segments T8-T10 [2]: as strong a stimulant as AcPep alone

thrombin
concentration without receptor activation [3]: > 100 nM

SLIGRL [PAR-2 activating peptide (AcPep)]
augmentation of Capsaicin-evoked CGRP release (multiple of the basal release), AcPep 10 µM [4]: ~2 fold | augmentation of KCl-evoked CGRP release (multiple of the basal release), AcPep 10 µM [4]: 1.5 fold
